Source: patent US20240043531A1, “ANTI-CD47 MONOCLONAL ANTIBODY AND USE THEREOF” (Akeso Biopharma, Inc., priority 2021, published 2024)

Legend:
[1] = system: Burkitt's lymphoma Raji cells; test: ADCP: phagocytosis of Raji cells by HPMMs, combination with rituximab; type: cell-based, human; conditions: HPMMs effector, Raji target cells, 37° C. 2 h, flow cytometry; FIG. 1
Source text: (§1) Materials: Azacitidine (purchased from Baxter Oncology GmbH); Hu5F9-G4 (supplied by Akeso Biopharma, Inc.); Raji cells (Chinese Academy of Sciences Shanghai Branch); HL-60 cells (ATCC); RPMI 1640 (Gibco, Cat. No: 22400-105); pancreatin (0.25% Typsin-EDTA (1×)) (Gibco, Cat. No: 25200072); fetal bovine serum (FBS; Excell bio, Cat. No: FSP500); fluorescent dye […] diacetatesuccinimidyl ester (CFSE; Biolegend, Cat. No: 423801); recombinant human macrophage colony-stimulating factor (human M-CSF; PeproTech, Cat. No: 300-25); APC anti-human CD11c antibody (Biolegend, Cat. No: 301614); isotype control (human IgG4; supplied by Akeso Biopharma, Inc.); rituximab (Roche); BSA (Sigma, Cat. No: V900933-1KG); Ficoll paque plus (GE, Cat. No: 17-1440-02). Human peripheral monocyte-derived macrophages (HPMMs) were prepared by inducing PBMCs. Frozen PBMCs were conventionally thawed and incubated in an incubator overnight. The next day, PBMCs were collected, centrifuged at 170×g for 5 min, resuspended in a 1640 medium containing 2% FBS, and incubated in an incubator for 2 h. […]
Procedures: Raji cells in the logarithmic phase were conventionally collected, centrifuged at 170×g for 5 min, resuspended and then washed once with PBS. […] 200 μL of 1% PBSA was added to each tube for resuspension, and the cells were detected on an FACS Calibur flow cytometer. […]

[2] = system: human ovarian cancer SK-OV-3 cells; test: Immune cell activation: PBMCs with Raji-PDL1 and SK-OV-3 cells, cytokine ELISA; type: cell-based; conditions: SEB-activated PBMCs + Raji-PDL1 + SK-OV-3 cells, 3 days; FIG. 5
[3] = system: human lung adenocarcinoma A549 cells; test: Immune cell activation: PBMCs with Raji-PDL1 and A549 cells, cytokine ELISA; type: cell-based; conditions: SEB-activated PBMCs + Raji-PDL1 + A549 cells, 3 days; FIG. 4
[4] = system: human prostate cancer LNCAP cells; test: Immune cell activation: PBMCs with Raji-PDL1 and LNCAP cells, cytokine ELISA; type: cell-based; conditions: SEB-activated PBMCs + Raji-PDL1 + LNCAP cells, 3 days; FIG. 6
[5] = system: acute myelocytic leukemia (AML) HL-60 cells; test: ADCP: phagocytosis of HL-60 cells by HPMMs, combination with azacitidine; type: cell-based, human; conditions: HPMMs effector, HL-60 target cells treated with azacitidine 3 μM or 1 μM for 24 h; antibodies 10 μg/mL and 1 μg/mL; FIG. 2
Source text: as §1, with “overnight.” for “overnight. The next day, PBMCs were collected, centrifuged at 170×g for 5 min, resuspended in a 1640 medium containing 2% FBS, and incubated in an incubator for 2 h.”
Procedures: HL-60 cells were conventionally collected and plated in a 6-well plate at 4×10^5 cells/2 mL of 1640 complete medium per well. […] The next day, the treated and blank HL-60 cells were collected, centrifuged at 170×g for 5 min, resuspended and counted. Then the cells were analyzed for viability and washed once with PBS. […]

[6] = molecular target: T1, CD47 IgV TEV-His (human CD47 mature peptide of positions 19-141 of NP_942088.1, TEV, his tag fusion protein) (human, UniProt Q08722 19-141); test: indirect ELISA screening with CD47 IgV TEV-His as antigen
T1 construct: range 19-141; Synthesized by Akeso Biopharma; not shown: his tag
Source text: Spleen cells of immunized mice were fused with myeloma cells of the mice to prepare hybridoma cells.

[7] = molecular target: T2, CD47 IgV TEV-His / human SIRPαECD-hFc-Biotin (Homo sapiens, UniProt Q08722); test: Competitive ELISA against receptor SIRPα ECD-hFc-Biotin for binding to CD47
T2 construct: human CD47 mature peptide of positions 19-141 of GenbankID: NP 942088.1; His tag (C); host or cells: mammalian cell expression system (said in general terms, for CD47 only)
Source text: (§2) The antigen used for preparing the anti-CD47 antibody with the hybridoma cell line 6F7 was CD47 IgV TEV-His (including human CD47 mature peptide of positions 19-141 of GenbankID: NP 942088.1 and TEV (amino acid sequence: ENLYFQG, SEQ ID NO: 74)-his tag fusion protein, synthesized by Akeso Biopharma, Inc.) and 3T3-CD47 cells (NIH/3T3, manufacturer: ATCC, Cat. No: CRL-1658; the human CD47 mature peptide was transfected into the cells on the basis of NIH/3T3 to construct a cell line stably expressing 3T3-CD47). Spleen cells of immunized mice were fused with myeloma cells of the mice to prepare hybridoma cells. […] The hybridoma cells obtained by ELISA screening were screened by competitive ELISA to obtain a hybridoma cell line capable of secreting a monoclonal antibody capable of competing for binding to CD47 IgV TEV-His with the receptor human SIRPαECD-hFc-Biotin (SIRPαECD refers to the extracellular region of SIRPα, positions 31-373 of protein GenBank ACCESSION No. NP_542970.1; hFc refers to a human IgG Fc purification label, specifically to Ig gamma-1 chain C region, positions 114-330 of GenbankID: P01857), which was then subjected to dilution cloning to obtain a stable hybridoma cell line. The hybridoma cell line was designated hybridoma cell line LT012, and the monoclonal antibody secreted by the cell line was designated 6F7.

[8] = molecular target: T3, CD47 IgV TEV-His (Homo sapiens, UniProt Q08722); test: Indirect ELISA screening for antibodies specifically binding CD47; conditions: monoclonal antibody secreted by hybridoma LT012
T3 construct: human CD47 mature peptide of positions 19-141 of GenbankID: NP 942088.1; His tag (C); host or cells: mammalian cell expression system (said in general terms)
Source text: as §2

rituximab: anti-human CD20 antibody (Roche) [reference compound]
phagocytic index (ADCP) [1]: significantly higher than those of the blank control and the isotype control (human IgG4)

penpulimab: anti-PD-1 antibody; heavy chain SEQ ID NO: 82, light chain SEQ ID NO: 84 [reference compound]
secretion of IL-2 by PBMC cells [2]: can significantly stimulate the secretion of IL-2 | secretion of IFN-γ by PBMC cells [3]: can significantly stimulate the secretion of IFN-γ | secretion of IL-2 by PBMC cells [4]: can significantly stimulate the secretion of IL-2

Nc1ncn([C@@H]2O[C@H](CO)[C@@H](O)[C@H]2O)c(=O)n1 [azacitidine]
phagocytic index (ADCP) [5]: significantly higher than those of the blank control and the isotype control (human IgG4)

B1: anti-CD47 monoclonal antibody 6F7 (secreted by hybridoma cell line LT012) (antibody, V domains shown)
VH: QVQLQQPGAELVRPGASVKLSCKASGYTFTSYWMNWVKQRPGQGLEWIGMIDPSDSETHNNQMFKDKATLTVDKSSNTAYMHLSSLTSEDSAVYHCARLYRWYFDVWGAGTTVTVSS
VL: NIVMTQSPKSMSMSLGERVTLSCKASEIVGTYVSWFQQKPHQSPKLLIYGASNRYTGVPDRFTGSGSATDFTLTISNVQAEDLADYHCGQSYNFPYTFGGGTKLEIK
notes: Murine hybridoma antibody; also called CD47-6F7; LT012 antibody
binding result [6]: binds

B2: 6F7: murine anti-CD47 monoclonal antibody secreted by hybridoma LT012; VH SEQ ID NO: 2, VL SEQ ID NO: 4 (antibody, V domains shown)
VH: B1 VH
VL: B1 VL
modifications: Synthetic artificial sequence-Amino acid sequence of the heavy chain variable region of 6F7; Synthetic artificial sequence-Amino acid sequence of the variable region of the light chain of 6F7
competition with SIRPα ECD-hFc-Biotin for binding to CD47 [7]: can compete with the receptor SIRPα ECD-hFc-Biotin for binding to CD47 | specific binding to CD47 [8]: capable of specifically binding to CD47
